The values below come from the supplement of paper PMC10627819.

Holding throughout (assay): Bliss interaction score (quartile over a dose matrix) (fitness difference); higher = more antagonism (negative = synergy)
Experiment [1] has as its system S. aureus DSM 20231. The procedure, abridged:
(§1)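 At entry into stationary phase, OD595 was recorded and divided by the robust mean of the no-drug wells on that plate, with any value above 1 set to 1. This gives the fitness measure used throughout. Single-drug fitness was inferred from combination data, and the Bliss score, observed minus product-expected fitness, is shown as quartiles across technical, biological and donor/recipient replicates.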

In experiment [2] the test system is B. subtilis 168. The procedure, abridged: as §1
The subject of experiment [3] is S. pneumoniae D39V. Summed up:
as §1

Experiment [4] concerns S. aureus Newman. Summed up:
as §1
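Also: first quartile when negative (synergy) and third quartile when positive (antagonism).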

In the case of `N[C@@H]1CONC1=O` [CycloserineD] + CC(C1CCC(C(O1)OC2C(CC(C(C2O)OC3C(C(C(CO3)(C)O)NC)O)N)N)N)NC [Gentamicin], the Bliss interaction score in experiment [1] (main component drawn) is -0.125; in experiment [2] (main component drawn), -0.0482; in experiment [3] (main component drawn), -0.0744; in experiment [4] (main component drawn), 0.0356.
`CC(=O)OC[C@H]1O[C@@H]([S-])[C@H](OC(C)=O)[C@@H](OC(C)=O)[C@@H]1OC(C)=O.CCP(CC)CC.[Au+]` [Auranofin] + CN[C@H](CC(C)C)C(=O)N[C@H]1C(=O)N[C@@H](CC(N)=O)C(=O)N[C@H]2C(=O)N[C@H]3C(=O)N[C@H](C(=O)N[C@H](C(=O)O)c4cc(O)cc(O)c4-c4cc3ccc4O)[C@H](O[C@H]3C[C@](C)(N)[C@@H](O)[C@H](C)O3)c3ccc(c(Cl)c3)Oc3cc2cc(c3O[C@@H]2O[C@H](CO)[C@@H](O)[C@H](O)[C@H]2O[C@H]2C[C@](C)(NCc3ccc(-c4ccc(Cl)cc4)cc3)[C@@H](O)[C@H](C)O2)Oc2ccc(cc2Cl)[C@H]1O [Oritavancin]: the Bliss interaction score in experiment [1] stood at 0.0219; in experiment [2], 0.0311; in experiment [3], 0.0463; in experiment [4] it was 0.0771.
Take `CC(=O)O[C@H]1C[C@@]2(C)[C@@H](C[C@@H](O)[C@H]3[C@@]4(C)CC[C@@H](O)[C@@H](C)[C@@H]4CC[C@@]32C)/C1=C(\CCC=C(C)C)C(=O)O` [Fusidic acid] + C/C(=C\C(=O)OCCCCCCCCC(=O)O)C[C@@H]1OC[C@H](C[C@@H]2O[C@H]2[C@@H](C)[C@H](C)O)[C@@H](O)[C@H]1O [Pseudomonic acid]: the Bliss interaction score in experiment [1] is 0.0339; in experiment [2] it was -0.0331; in experiment [3], 0.1; in experiment [4], 0.031.
Take `C[C@@H](O)[C@H]1C(=O)N2C(C(=O)O)=C(SCCNC=N)C[C@H]12` [Imipenem] + CN[C@H](CC(C)C)C(=O)N[C@H]1C(=O)N[C@@H](CC(N)=O)C(=O)N[C@H]2C(=O)N[C@H]3C(=O)N[C@H](C(=O)N[C@H](C(=O)O)c4cc(O)cc(O)c4-c4cc3ccc4O)[C@H](O[C@H]3C[C@](C)(N)[C@@H](O)[C@H](C)O3)c3ccc(c(Cl)c3)Oc3cc2cc(c3O[C@@H]2O[C@H](CO)[C@@H](O)[C@H](O)[C@H]2O[C@H]2C[C@](C)(NCc3ccc(-c4ccc(Cl)cc4)cc3)[C@@H](O)[C@H](C)O2)Oc2ccc(cc2Cl)[C@H]1O [Oritavancin]: the Bliss interaction score was -0.0256 in experiment [1], 0.0293 in experiment [2], -0.0529 in experiment [3] and 0.0479 in experiment [4].
Regarding `CC(=O)O[C@H]1C[C@@]2(C)[C@@H](C[C@@H](O)[C@H]3[C@@]4(C)CC[C@@H](O)[C@@H](C)[C@@H]4CC[C@@]32C)/C1=C(\CCC=C(C)C)C(=O)O` [Fusidic acid] + Cc1cc(NS(=O)(=O)c2ccc(N)cc2)no1 [Sulfamethoxazol], the Bliss interaction score in experiment [1] was -0.0234; in experiment [2] it was 0.0933; in experiment [3], 0.0975; in experiment [4], -0.026.
With `O=C(O[C@@H]1Cc2c(O)cc(O)cc2O[C@@H]1c1cc(O)c(O)c(O)c1)c1cc(O)c(O)c(O)c1` [EGCG] + CN[C@H](CC(C)C)C(=O)N[C@H]1C(=O)N[C@@H](CC(N)=O)C(=O)N[C@H]2C(=O)N[C@H]3C(=O)N[C@H](C(=O)N[C@H](C(=O)O)c4cc(O)cc(O)c4-c4cc3ccc4O)[C@H](O[C@H]3C[C@](C)(N)[C@@H](O)[C@H](C)O3)c3ccc(c(Cl)c3)Oc3cc2cc(c3O[C@@H]2O[C@H](CO)[C@@H](O)[C@H](O)[C@H]2O[C@H]2C[C@](C)(NCc3ccc(-c4ccc(Cl)cc4)cc3)[C@@H](O)[C@H](C)O2)Oc2ccc(cc2Cl)[C@H]1O [Oritavancin], the Bliss interaction score in experiment [1] came to 0.176; in experiment [2], 0.0249; in experiment [3], 0.0545; in experiment [4] it was 0.318.
The corresponding values for `CC(=O)OC[C@H]1O[C@@H]([S-])[C@H](OC(C)=O)[C@@H](OC(C)=O)[C@@H]1OC(C)=O.CCP(CC)CC.[Au+]` [Auranofin] + CC1=C(C(=O)O)N2C(=O)[C@@H](NC(=O)[C@H](N)c3ccccc3)[C@H]2SC1 [Cephalexin] are -0.0272, -0.0587, -0.101 and -0.0291.
For `N[C@@H]1CONC1=O` [CycloserineD] + CCN(CC)CCOC(=O)c1ccc(N)cc1 [Procaine], the Bliss interaction score in experiment [1] is 0.0639; in experiment [2] it was -0.0484; in experiment [3], -0.0723; in experiment [4], 0.0381.
Consider `N[C@@H]1CONC1=O` [CycloserineD] + Cn1nnc(-c2ccc(-c3ccc(N4C[C@H](CO)OC4=O)cc3F)cn2)n1 [Tedizolid], for which the Bliss interaction score was -0.101 in experiment [1], 0.0364 in experiment [2], 0.126 in experiment [3] and 0.0593 in experiment [4].
With `N[C@@H]1CONC1=O` [CycloserineD] + Oc1cc(Cl)ccc1Oc1ccc(Cl)cc1Cl [Triclosan], the Bliss interaction score in experiment [1] was 0.0965; in experiment [2], 0.0246; in experiment [3], -0.11; in experiment [4], 0.0356.
Take `N[C@@H]1CONC1=O` [CycloserineD] + C[C@H]1c2cccc(O)c2C(=O)C2=C(O)[C@]3(O)C(=O)C(C(N)=O)=C(O)[C@@H](N(C)C)[C@@H]3[C@@H](O)[C@@H]21 [Doxycycline]: the Bliss interaction score in experiment [1] is -0.116; in experiment [2], 0.0526; in experiment [3], 0.243; in experiment [4], -0.0254.
As to `CC(=O)OC[C@H]1O[C@@H]([S-])[C@H](OC(C)=O)[C@@H](OC(C)=O)[C@@H]1OC(C)=O.CCP(CC)CC.[Au+]` [Auranofin] + CN(C)C(=O)C(CCN1CCC(O)(c2ccc(Cl)cc2)CC1)(c1ccccc1)c1ccccc1 [Loperamide], the Bliss interaction score in experiment [1] stood at 0.0252; in experiment [2], 0.0417; in experiment [3] it was 0.116; in experiment [4], 0.113.
`O=C(N[C@H](CO)[C@H](O)c1ccc([N+](=O)[O-])cc1)C(Cl)Cl` [Chloramphenicol] + CO[C@@H]1[C@@H](OC(N)=O)[C@@H](O)[C@H](Oc2ccc3c(O)c(NC(=O)c4ccc(O)c(CC=C(C)C)c4)c(=O)oc3c2C)OC1(C)C [Novobiocin]: the Bliss interaction score is 0.0712 in experiment [1], 0.0928 in experiment [2], -0.111 in experiment [3] and 0.0758 in experiment [4].
In the case of `O=C1CN(/N=C/c2ccc([N+](=O)[O-])o2)C(=O)N1` [Nitrofurantoin] + CCCCCCCCCC(=O)N[C@@H]1[C@H]([C@@H]([C@H](O[C@H]1OC2=C3C=C4C=C2OC5=C(C=C(C=C5)[C@H]([C@H]6C(=O)N[C@@H](C7=C(C(=CC(=C7)O)OC8[C@H]([C@H]([C@@H]([C@H](O8)CO)O)O)O)C9=C(C=CC(=C9)[C@H](C(=O)N6)NC(=O)[C@@H]4NC(=O)[C@@H]1C2=CC(=CC(=C2)OC2=C(C=CC(=C2)[C@H](C(=O)N[C@H](CC2=CC(=C(O3)C=C2)Cl)C(=O)N1)N)O)O)O)C(=O)O)O[C@H]1[C@@H]([C@H]([C@@H]([C@H](O1)CO)O)O)NC(=O)C)Cl)CO)O)O [Teicoplanin], the Bliss interaction score is 0.0402 in experiment [1] (main component drawn), -0.157 in experiment [2] (main component drawn), -0.06 in experiment [3] (main component drawn) and -0.0914 in experiment [4] (main component drawn).
